PubChem BioAssay (NCI)
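How tested: cells in 96-well plates exposed to compound for 48 hours at five concentrations. GI50 = concentration required for 50% inhibition of growth. The concentration for full growth arrest is given as TGI.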

Experiments:
Assay in all cases: inhibition of tumour cell growth, NCI panel, 48 h; in the data active = GI50 below about 0.43 µM; inactive = the rest
A498 renal = tested on: A498 renal
ACHN renal = tested on: ACHN renal
BT-549 breast = tested on: BT-549 breast
CAKI-1 renal = tested on: CAKI-1 renal
DU-145 prostate = tested on: DU-145 prostate
EKVX NSCLC = tested on: EKVX NSCLC
HCC-2998 colon = tested on: HCC-2998 colon
HCT-15 colon = tested on: HCT-15 colon
HL-60(TB) leukemia = tested on: HL-60(TB) leukemia
HOP-62 NSCLC = tested on: HOP-62 NSCLC
HOP-92 NSCLC = tested on: HOP-92 NSCLC
HS 578T breast = tested on: HS 578T breast
HT29 colon = tested on: HT29 colon
IGROV1 ovarian = tested on: IGROV1 ovarian
K-562 leukemia = tested on: K-562 leukemia
LOX IMVI melanoma = tested on: LOX IMVI melanoma
M14 melanoma = tested on: M14 melanoma
MALME-3M melanoma = tested on: MALME-3M melanoma
MCF7 breast = tested on: MCF7 breast
MDA-MB-435 = tested on: MDA-MB-435
NCI-H226 lung = tested on: NCI-H226 lung
NCI-H23 lung = tested on: NCI-H23 lung
NCI-H522 lung = tested on: NCI-H522 lung
NCI/ADR-RES ovarian = tested on: NCI/ADR-RES ovarian
OVCAR-5 ovarian = tested on: OVCAR-5 ovarian
PC-3 prostate = tested on: PC-3 prostate
RXF 393 renal = tested on: RXF 393 renal
SF-268 CNS = tested on: SF-268 CNS
SF-295 CNS = tested on: SF-295 CNS
SF-539 CNS = tested on: SF-539 CNS
SK-MEL-2 melanoma = tested on: SK-MEL-2 melanoma
SK-MEL-28 melanoma = tested on: SK-MEL-28 melanoma
SK-MEL-5 melanoma = tested on: SK-MEL-5 melanoma
SK-OV-3 ovarian = tested on: SK-OV-3 ovarian
SNB-19 CNS = tested on: SNB-19 CNS
SNB-75 CNS = tested on: SNB-75 CNS
T-47D breast = tested on: T-47D breast
TK-10 renal = tested on: TK-10 renal
UACC-257 melanoma = tested on: UACC-257 melanoma
UACC-62 melanoma = tested on: UACC-62 melanoma
UO-31 renal = tested on: UO-31 renal
786-0 renal = tested on: 786-0 renal
A549 NSCLC = tested on: A549 NSCLC
CCRF-CEM leukemia = tested on: CCRF-CEM leukemia
COLO 205 colon = tested on: COLO 205 colon
HCT-116 colon = tested on: HCT-116 colon
KM12 colon = tested on: KM12 colon
MOLT-4 leukemia = tested on: MOLT-4 leukemia
NCI-H460 lung = tested on: NCI-H460 lung
OVCAR-3 ovarian = tested on: OVCAR-3 ovarian
OVCAR-4 ovarian = tested on: OVCAR-4 ovarian
OVCAR-8 ovarian = tested on: OVCAR-8 ovarian
RPMI-8226 leukemia = tested on: RPMI-8226 leukemia
SW-620 colon = tested on: SW-620 colon
U251 CNS = tested on: U251 CNS

O=C(CSCC(=O)N/N=C/c1cccc(C(F)(F)F)c1)N/N=C/c1cccc(C(F)(F)F)c1
> 100 µM: TGI (A498 renal) | TGI (ACHN renal) | TGI (BT-549 breast) | TGI (CAKI-1 renal) | TGI (DU-145 prostate) | TGI (EKVX NSCLC) | TGI (HCC-2998 colon) | TGI (HCT-15 colon) | TGI (HL-60(TB) leukemia) | TGI (HOP-62 NSCLC) | TGI (HOP-92 NSCLC) | TGI (HS 578T breast) | TGI (HT29 colon) | TGI (IGROV1 ovarian) | TGI (K-562 leukemia) | TGI (LOX IMVI melanoma) | TGI (M14 melanoma) | TGI (MALME-3M melanoma) | TGI (MCF7 breast) | TGI (MDA-MB-435) | TGI (NCI-H226 lung) | TGI (NCI-H23 lung) | TGI (NCI-H522 lung) | TGI (NCI/ADR-RES ovarian) | TGI (OVCAR-5 ovarian) | TGI (PC-3 prostate) | TGI (RXF 393 renal) | TGI (SF-268 CNS) | TGI (SF-295 CNS) | TGI (SF-539 CNS) | TGI (SK-MEL-2 melanoma) | TGI (SK-MEL-28 melanoma) | TGI (SK-MEL-5 melanoma) | TGI (SK-OV-3 ovarian) | TGI (SNB-19 CNS) | TGI (SNB-75 CNS) | TGI (T-47D breast) | TGI (TK-10 renal) | TGI (UACC-257 melanoma) | TGI (UACC-62 melanoma) | TGI (UO-31 renal)

N#Cc1c(-c2ccccc2)n([O-])c2ccccc2[n+]1=O
> 100 µM: TGI (786-0 renal) | TGI (COLO 205 colon) | TGI (HT29 colon) | TGI (IGROV1 ovarian) | TGI (MCF7 breast) | TGI (RXF 393 renal) | TGI (SK-MEL-2 melanoma) | TGI (SK-MEL-28 melanoma) | TGI (SK-OV-3 ovarian) | TGI (SNB-19 CNS) | TGI (SNB-75 CNS) | TGI (SW-620 colon) | TGI (UO-31 renal)
32.2 µM: TGI (KM12 colon)
45.9 µM: TGI (NCI-H460 lung)
36.3 µM: TGI (MDA-MB-435)
63.9 µM: TGI (SF-268 CNS)
34.7 µM: TGI (CAKI-1 renal)
60.8 µM: TGI (SF-539 CNS)
34 µM: TGI (HCC-2998 colon)
56.4 µM: TGI (SF-295 CNS)
37.1 µM: TGI (K-562 leukemia) | TGI (MALME-3M melanoma)
40.1 µM: TGI (UACC-257 melanoma)
81.8 µM: TGI (OVCAR-4 ovarian)
48.3 µM: TGI (HCT-15 colon)
27.2 µM: TGI (MOLT-4 leukemia)
34.8 µM: TGI (HCT-116 colon)
inactive: GI50 (786-0 renal) 35.7 µM | GI50 (A549 NSCLC) 22 µM | GI50 (ACHN renal) 19.9 µM | GI50 (BT-549 breast) 25.1 µM | GI50 (CAKI-1 renal) 20.1 µM | GI50 (CCRF-CEM leukemia) 22.2 µM | GI50 (COLO 205 colon) 35.5 µM | GI50 (DU-145 prostate) 22.4 µM | GI50 (EKVX NSCLC) 28.2 µM | GI50 (HCC-2998 colon) 17 µM | GI50 (HCT-116 colon) 19.5 µM | GI50 (HCT-15 colon) 21.4 µM | GI50 (HL-60(TB) leukemia) 25.2 µM | GI50 (HOP-62 NSCLC) 20.2 µM | GI50 (HOP-92 NSCLC) 21.8 µM | GI50 (HS 578T breast) 26.8 µM | GI50 (HT29 colon) 38.8 µM | GI50 (IGROV1 ovarian) 36.9 µM | GI50 (K-562 leukemia) 20.6 µM | GI50 (KM12 colon) 16.2 µM | GI50 (LOX IMVI melanoma) 18.7 µM | GI50 (MALME-3M melanoma) 21.3 µM | GI50 (MCF7 breast) 33.2 µM | GI50 (MDA-MB-435) 19.7 µM | GI50 (MOLT-4 leukemia) 10.2 µM | GI50 (NCI-H23 lung) 20.3 µM | GI50 (NCI-H460 lung) 20.7 µM | GI50 (NCI-H522 lung) 26.9 µM | GI50 (NCI/ADR-RES ovarian) 21.1 µM | GI50 (OVCAR-3 ovarian) 22.3 µM | GI50 (OVCAR-4 ovarian) 28.8 µM | GI50 (OVCAR-5 ovarian) 28.1 µM | GI50 (OVCAR-8 ovarian) 32.5 µM | GI50 (PC-3 prostate) 26.4 µM | GI50 (RPMI-8226 leukemia) 21.1 µM | GI50 (RXF 393 renal) 42.8 µM | GI50 (SF-268 CNS) 24.8 µM | GI50 (SF-295 CNS) 24.4 µM | GI50 (SF-539 CNS) 32.1 µM | GI50 (SK-MEL-2 melanoma) 62.6 µM | GI50 (SK-MEL-28 melanoma) 65.7 µM | GI50 (SK-MEL-5 melanoma) 20.1 µM | GI50 (SK-OV-3 ovarian) 51.7 µM | GI50 (SNB-19 CNS) 67.1 µM | GI50 (SNB-75 CNS) 41.1 µM | GI50 (SW-620 colon) 35.3 µM | GI50 (T-47D breast) 30.1 µM | GI50 (TK-10 renal) 29.4 µM | GI50 (U251 CNS) 24.7 µM | GI50 (UACC-257 melanoma) 21.4 µM | GI50 (UO-31 renal) 33.9 µM
37.5 µM: TGI (ACHN renal)
68.4 µM: TGI (TK-10 renal)
42.2 µM: TGI (RPMI-8226 leukemia)
83.7 µM: TGI (T-47D breast)
74.2 µM: TGI (OVCAR-5 ovarian)
75.1 µM: TGI (NCI-H522 lung)
57.3 µM: TGI (BT-549 breast)
44.8 µM: TGI (NCI/ADR-RES ovarian)
58 µM: TGI (EKVX NSCLC)
50.9 µM: TGI (A549 NSCLC)
42.9 µM: TGI (OVCAR-3 ovarian)
45.4 µM: TGI (HOP-92 NSCLC)
35.1 µM: TGI (LOX IMVI melanoma)
40.3 µM: TGI (NCI-H23 lung)
46.1 µM: TGI (CCRF-CEM leukemia)
60.7 µM: TGI (U251 CNS)
91.3 µM: TGI (OVCAR-8 ovarian)
38.7 µM: TGI (HOP-62 NSCLC)
70 µM: TGI (HS 578T breast)
47.9 µM: TGI (HL-60(TB) leukemia)
38.5 µM: TGI (SK-MEL-5 melanoma)
51.2 µM: TGI (DU-145 prostate)
79.8 µM: TGI (PC-3 prostate)
